# Measurements from patent US20030139373A1, “Method for cancer therapy” (priority 2001, published 2003).
# Legend:
# A549 NSCLC Xenograft = assay: A549 NSCLC xenograft model, efficacy (tumor growth inhibition); type: in vivo, mice; details: single agent
# Source text: For implantation in mice, A549 cells were dislodged with trypsin-EDTA, washed with 1×D-PBS, and resuspended in serum-free media. […] Tumors were allowed to establish until they were palpable and of an appropriate tumor volume (based on previous tumorigenicity studies) before initiation of treatment. Animals were randomly assigned to groups according to initial tumor volume, and the day of tumor cell inoculation was considered to be study day 0. […] The solution was then evaporated and lyophilized. […] Efficacy data was graphically represented as the mean tumor volume ±standard error of the mean (SEM). Tumor volumes of treated groups were presented as percentages of tumor volumes of the control groups (%T/C), using the formula: 100×((T-T0)/(C-C0)), where 'T' represented mean tumor volume of a treated group on a specific day during the experiment, 'T0' represented mean tumor volume of the same treated group on the first day of treatment; 'C' represented mean tumor volume of a control group on a specific day during the experiment, and C0' represented mean tumor volume of the same […] 'D' represents the large diameter of the tumor, and 'd' represents the small diameter. In some cases, tumor regression and/or percent change in tumor volume was calculated using the formula: Statistical analysis was determined by the rank sum test (SigmaStat, v.2.0, Jandel Scientific, San Francisco, Calif.).
# [1] = A549 NSCLC xenograft model, toxicity (body weight, deaths); details: single agent
# Source text: Female BALB/c nu/nu mice were obtained from Charles River Laboratories (Wilmington, Mass.). The mice were housed in an AALAC approved facility and received standard care in accordance with institutional policy (fully compliant with both NIH and Roche Animal Care and Use Committee guidelines).
# Compound II was microprecipitated with an ionic polymer, Eudragit L-100-55, using a solvent extraction method. Eudragit L100-55 (described in USP/NF as “Methacrylic Acid Copolymer”) is an anionic copolymer based on methacrylic acid and ethyl acrylate. The ratio of drug to polymer in the final formulation was 50% w/w Compound II and 50% w/w Eudragit L100-55. For oral administration, the formulated Compound II or pure Eudragit L100-55 (administered to vehicle control groups) was suspended in 0.2% CMC (carboxy-methyl cellulose) solution (Aqualon Hercules, Inc., Parlin, N.J.). The CMC solution was added immediately prior to dosing to animals. Gemzar® (Lilly, Indianapolis, Ind.) was applied to a 40 micron high performance Whatman C-18 column. The column was eluted at 60 ml/min for 50 minutes with water, followed by elution with 40% CH3CN/water until UV clear. The solution was then evaporated and lyophilized.
# Weight loss was graphically represented as percent change in mean group body weight, using the formula: […]
# where ‘W’ represents mean body weight of the treated group at a particular day, and ‘W0’ represents mean body weight of the same treated group at initiation of treatment.
# H1299 cells = assay: Tetrazolium dye (MTT) proliferation assay, H1299; type: cell-based; details: Homo sapiens, NCI-H1299; MTT assay using H1299 cells
# Method: H1299 cells were obtained from the National Cancer Institute. A549 cells were purchased from ATCC. The cells were grown in a subconfluent condition to maintain a logarithmic growth phase. The cells were dislodged for passage using trypsin-EDTA (0.05% and 0.53 mM, respectively).
# Cellular proliferation was evaluated by the tetrazolium dye assay. Cells from exponentially growing cultures were plated at the appropriate seeding density in the optimal medium to give logarithmic growth over the course of the assay. Plates were incubated overnight at 37° C. in a humidified CO2 atmosphere to allow for recovery from trypsinization before beginning the assay. […] The plates were returned to 37° C. and assayed for proliferation by MTT (3-(4,5-dimethyl-thiazole-2-yl)-2,5-diphenyl-2H-tetrazolium bromide at time points that would allow for at least three population doublings in the untreated control cultures. MTT was added to each well to yield a final concentration of 1 mg/ml and the plates were returned to 37° C. for 2.5 hours. Following incubation, the MTT-containing medium was removed by aspiration and the resulting formazan metabolite was solubilized in 50 μl ethanol. Absorbances were read at a wavelength of 570 nm with a 650 nm reference. Percent inhibition was calculated using the formula: [formula]
smiles,measurement,setting,value
Cn1cc(C2=C(c3cn(C)c4cc([N+](=O)[O-])ccc34)C(=O)NC2=O)c2ccccc21 [Compound II],Tumor Volume (Mean ± SEM) (Day 30),A549 NSCLC Xenograft; CII 50 mg/kg PO,104 ± 18 mm3
same,% T/C (Day 47),A549 NSCLC Xenograft; CII 50 mg/kg PO,50%
same,Tumor Volume (Mean ± SEM) (Day 47),A549 NSCLC Xenograft; CII 50 mg/kg PO,217 ± 32 mm3
same,Tumor Volume (Mean ± SEM) (Day 30),A549 NSCLC Xenograft; CII 100 mg/kg PO,148 ± 28 mm3
same,% T/C (Day 47),A549 NSCLC Xenograft; CII 100 mg/kg PO,29%
same,Tumor Volume (Mean ± SEM) (Day 47),A549 NSCLC Xenograft; CII 100 mg/kg PO,213 ± 35 mm3
same,Tumor Volume (Mean ± SEM) (Day 30),A549 NSCLC Xenograft; CII 200 mg/kg PO,99 ± 17 mm3
same,% T/C (Day 47),A549 NSCLC Xenograft; CII 200 mg/kg PO,18%
same,Tumor Volume (Mean ± SEM) (Day 47),A549 NSCLC Xenograft; CII 200 mg/kg PO,141 ± 21 mm3
same,Drug Related Deaths,[1]; CII 50 mg/kg PO,0%
same,Drug Related Deaths,[1]; CII 100 mg/kg PO,0%
same,Drug Related Deaths,[1]; CII 200 mg/kg PO,0%
"Nc1ccn([C@@H]2O[C@H](CO)[C@@H](O)C2(F)F)c(=O)n1 [Gemcitabine, gemcitabine]",Tumor Volume (Mean ± SEM) (Day 30),A549 NSCLC Xenograft; G 30 mg/kg IP,97 ± 15 mm3
same,% T/C (Day 47),A549 NSCLC Xenograft; G 30 mg/kg IP,72%
same,Tumor Volume (Mean ± SEM) (Day 47),A549 NSCLC Xenograft; G 30 mg/kg IP,210 ± 44 mm3
same,Tumor Volume (Mean ± SEM) (Day 30),A549 NSCLC Xenograft; G 60 mg/kg IP,111 ± 17 mm3
same,% T/C (Day 47),A549 NSCLC Xenograft; G 60 mg/kg IP,49%
same,Tumor Volume (Mean ± SEM) (Day 47),A549 NSCLC Xenograft; G 60 mg/kg IP,188 ± 27 mm3
same,Tumor Volume (Mean ± SEM) (Day 30),A549 NSCLC Xenograft; G 120 mg/kg IP,98 ± 20 mm3
same,% T/C (Day 47),A549 NSCLC Xenograft; G 120 mg/kg IP,61%
same,Tumor Volume (Mean ± SEM) (Day 47),A549 NSCLC Xenograft; G 120 mg/kg IP,193 ± 36 mm3
same,Drug Related Deaths,[1]; G 30 mg/kg IP,0%
same,Drug Related Deaths,[1]; G 60 mg/kg IP,0%
same,Drug Related Deaths,[1]; G 120 mg/kg IP,0%
same,IC50,H1299 cells,3.8 nM
same,IC90,H1299 cells,6 nM
